# Patent publication US11213055B2, “Fermentate compositions and methods of making and using the same” (Third Wave Bioactives, LLC, priority 2017, dated 2022)
# Where “and” joins values, the source holds several entries; their conditions need not be identical. Equal values may be shown once.
# How the values were obtained:
# [1] = tested on: Zygosaccharomyces rouxii strain, Y-229, and Torulaspora delbruckii strain, Y-866; test: yeast challenge in dark chocolate sauce, yeast enumeration; assay type: cell-based
# Procedure: (§1) The treatments were prepared by dissolving the spray dried fermentate in 15 ml sterile water and then mixed into the sauce using sterile hand whisks. One of the L. reuteri fermentate treatments was incubated for 30 minutes in a water bath set at 60° C. prior to addition to the chocolate sauce to determine how heat would affect the treatment since traditional manufacturing of the chocolate sauce includes a heating step.
# (§2) All jars were then inoculated with a dual yeast challenge of Zygosaccharomyces rouxii strain, Y-229, and Torulaspora delbruckii strain, Y-866, which were both obtained from the ARS NRRL Culture Collection. The yeast strains were grown in Potato Dextrose broth at 32° C. overnight, then diluted in sterile water to approximately 2.0×10^5 CFU/ml. The two strains were then combined and 5 ml of the combination culture was added to each jar to provide a challenge dose of approximately 1.0×10^3 CFU/ml.
# (§3) A 10-gram sample was removed from each jar immediately after challenge inoculation to analyze the pH and the initial yeast count in duplicate on Potato Dextrose Agar acidified with 10% Tartaric Acid (PDA4-TA) as well as the total aerobic plate count (APC) in duplicate on Tryptic Soy Agar (TSA). Once solidified, the PDA+TA plates were incubated at 28° C. for 72 hours and the TSA plates were incubated at 32° C. for 48 hours, then counted to determine CFU/g. The jars were kept at room temperature (˜20-22° C.) in a dark cabinet for the first 21 days, then moved to an incubator set at 28° C. for the duration of the study. On days 4, 7, 11, 14, 18, 21, 28, 35, 49, 56, 63, 94, 109, and 124, a 10-gram sample was removed from each jar to analyze the change in pH, as well as the yeast and APC levels in duplicate as described above.
# [2] = tested on: total aerobic plate count (APC); test: total aerobic plate count (APC) in dark chocolate sauce; assay type: cell-based
# Procedure: as §1, §2, §3
compound,measurement,setting,value
C/C=C/C=C/C(=O)[O-].[K+] [Potassium sorbate],day at which resurgence of yeast started,[1]; dark chocolate sauce,49 days
same,day at which yeast levels were no longer detectable (<10 CFU/g),[1]; dark chocolate sauce,35 days
same,"Enumeration of yeast in dark chocolate sauce, AVG",[1]; day 0,2.00E+03 CFU/g
same,"Enumeration of yeast in dark chocolate sauce, duplicate counts",[1]; day 0,1.73E+03 CFU/g and 2.27E+03 CFU/g
same,"Enumeration of yeast in dark chocolate sauce, AVG",[1]; day 4,1.23E+03 CFU/g
same,"Enumeration of yeast in dark chocolate sauce, duplicate counts",[1]; day 4,9.49E+02 CFU/g and 1.51E+03 CFU/g
same,"Enumeration of yeast in dark chocolate sauce, AVG",[1]; day 7,9.08E+02 CFU/g
same,"Enumeration of yeast in dark chocolate sauce, duplicate counts",[1]; day 7,6.43E+02 CFU/g and 1.17E+03 CFU/g
same,"Enumeration of yeast in dark chocolate sauce, AVG",[1]; day 11,1.02E+03 CFU/g
same,"Enumeration of yeast in dark chocolate sauce, duplicate counts",[1]; day 11,1.10E+03 CFU/g and 9.43E+02 CFU/g
same,"Enumeration of yeast in dark chocolate sauce, AVG",[1]; day 14,5.48E-02 CFU/g
same,"Enumeration of yeast in dark chocolate sauce, duplicate counts",[1]; day 14,4.99E+02 CFU/g and 5.98E+02 CFU/g
same,"Enumeration of yeast in dark chocolate sauce, AVG",[1]; day 18,3.30E+02 CFU/g
same,"Enumeration of yeast in dark chocolate sauce, AVG",[1]; day 21,2.06E+02 CFU/g
same,"Enumeration of yeast in dark chocolate sauce, AVG",[1]; day 28,1.26E+02 CFU/g
same,"Enumeration of yeast in dark chocolate sauce, duplicate counts",[1]; day 28,1.51E+02 CFU/g and 1.00E+02 CFU/g
same,"Enumeration of yeast in dark chocolate sauce, AVG",[1]; day 35,<10 CFU/g
same,"Enumeration of yeast in dark chocolate sauce, duplicate counts",[1]; day 35,<10 CFU/g
same,"Enumeration of yeast in dark chocolate sauce, AVG",[1]; day 49,1.53E+01 CFU/g
same,"Enumeration of yeast in dark chocolate sauce, AVG",[1]; day 56,<10 CFU/g
same,"Enumeration of yeast in dark chocolate sauce, duplicate counts",[1]; day 56,<10 CFU/g
same,"Enumeration of yeast in dark chocolate sauce, AVG",[1]; day 63,<10 CFU/g
same,"Enumeration of yeast in dark chocolate sauce, duplicate counts",[1]; day 63,<10 CFU/g
same,"Enumeration of yeast in dark chocolate sauce, AVG",[1]; day 94,3.71E+02 CFU/g
same,"Enumeration of yeast in dark chocolate sauce, duplicate counts",[1]; day 94,3.07E+02 CFU/g and 4.35E+02 CFU/g
same,"Enumeration of yeast in dark chocolate sauce, AVG",[1]; day 109,1.50E+02 CFU/g
same,"Enumeration of yeast in dark chocolate sauce, AVG",[1]; day 124,1.21E+04 CFU/g
same,"Enumeration of yeast in dark chocolate sauce, duplicate counts",[1]; day 124,1.25E+04 CFU/g and 1.17E+04 CFU/g
same,"APC, CFU/g (duplicate counts)",[2]; day 0,2.83E+03 CFU/g and 2.94E+03 CFU/g
same,"APC, AVG","[2]; day 0, average of duplicate counts",2.89E+03 CFU/g
same,"APC, CFU/g (duplicate counts)",[2]; day 4,2.57E+03 CFU/g and 2.96E+03 CFU/g
same,"APC, AVG","[2]; day 4, average of duplicate counts",2.77E+03 CFU/g
same,"APC, CFU/g (duplicate counts)",[2]; day 7,2.47E+03 CFU/g and 3.12E+03 CFU/g
same,"APC, AVG","[2]; day 7, average of duplicate counts",2.79E+03 CFU/g
same,"APC, CFU/g (duplicate counts)",[2]; day 11,2.24E+03 CFU/g and 2.49E+03 CFU/g
same,"APC, AVG","[2]; day 11, average of duplicate counts",2.36E+03 CFU/g
same,"APC, CFU/g (duplicate counts)",[2]; day 14,1.59E+03 CFU/g and 2.13E+03 CFU/g
same,"APC, AVG","[2]; day 14, average of duplicate counts",1.86E+03 CFU/g
same,"APC, CFU/g (duplicate counts)",[2]; day 18,1.44E+03 CFU/g and 1.56E+03 CFU/g
same,"APC, AVG","[2]; day 18, average of duplicate counts",1.50E+03 CFU/g
same,"APC, CFU/g (duplicate counts)",[2]; day 21,1.13E+03 CFU/g and 1.31E+03 CFU/g
same,"APC, AVG","[2]; day 21, average of duplicate counts",1.22E+03 CFU/g
same,"APC, CFU/g (duplicate counts)",[2]; day 28,8.53E+02 CFU/g and 9.84E+02 CFU/g
same,"APC, AVG","[2]; day 28, average of duplicate counts",9.19E+02 CFU/g
same,"APC, CFU/g (duplicate counts)",[2]; day 35,7.22E+02 CFU/g and 6.82E+02 CFU/g
same,"APC, AVG","[2]; day 35, average of duplicate counts",7.02E+02 CFU/g
same,"APC, CFU/g (duplicate counts)",[2]; day 49,6.85E+02 CFU/g and 6.14E+02 CFU/g
same,"APC, AVG","[2]; day 49, average of duplicate counts",6.50E+02 CFU/g
same,"APC, CFU/g (duplicate counts)",[2]; day 56,5.72E+02 CFU/g and 3.71E+02 CFU/g
same,"APC, AVG","[2]; day 56, average of duplicate counts",4.71E+02 CFU/g
same,"APC, CFU/g (duplicate counts)",[2]; day 63,5.89E+02 CFU/g and 6.79E+02 CFU/g
same,"APC, AVG","[2]; day 63, average of duplicate counts",6.34E+02 CFU/g
same,"APC, CFU/g (duplicate counts)",[2]; day 94,5.54E+02 CFU/g and 7.62E+02 CFU/g
same,"APC, AVG","[2]; day 94, average of duplicate counts",6.58E+02 CFU/g
same,"APC, CFU/g (duplicate counts)",[2]; day 109,6.36E+02 CFU/g and 5.52E+02 CFU/g
same,"APC, AVG","[2]; day 109, average of duplicate counts",5.94E+02 CFU/g
same,"APC, CFU/g (duplicate counts)",[2]; day 124,2.52E+02 CFU/g and 3.78E+02 CFU/g
same,"APC, AVG","[2]; day 124, average of duplicate counts",3.15E+02 CFU/g
